Data reported in US10071133B2, “Method for destroying exosomes, kit for destroying exosomes, and method for isolating exosomes derived from normal cells” (priority 2015, dated 2018).
Ends that are not written are not given here.

Each molecule was assayed on exosome fraction B derived from human breast cancer cells (MDA-MB-231-luc-D3H2LN) (assay: Extraction of microRNA (miR-21) from exosomes derived from human breast cancer cells, real-time PCR). Details: 100 μM peptide, 1×10^11 particles/mL exosomes, 0.4 U/μL RNase inhibitor, 37° C., 24 hours; without peptide 8×10^−14M.
Type: biochemical
Experimental: A cell suspension of cell line MDA-MB-231-luc-D3H2LN derived from human breast cancer (=MM231-luc-D3H2LN, provided by the National Cancer Center Research Institute) was seeded in a dish containing RPMI 1640 medium (manufactured by Thermo Fisher Scientific Inc.) containing 10% fetal bovine serum. Subsequently, the cell line was grown at 37° C. under the condition that CO2 concentration was set to 5 volume % using a CO2 incubator, and then the medium was replaced with Advanced RPMI 1640 medium (manufactured by Thermo Fisher Scientific Inc.), followed by culturing for 48 hours, and therefore the culture solution containing exosomes was obtained. This culture solution was centrifuged at 2,000 G for 10 minutes to remove the precipitate, followed by centrifugation at 110,000 G for 70 minutes to precipitate the exosomes, and therefore an exosome fraction B was recovered. The recovered exosome fraction B was suspended in a phosphate buffered saline (PBS) and then stored at 4° C. Storage samples were lightly suspended with a vortex mixer (vibration mixer) before use.
MicroRNA (miR-21 or miR-16) in the reaction solution was subjected to reverse transcription PCR using reverse transcription primers (manufactured by Thermo Fisher Scientific Inc., Taqman microRNA Assays, RT primers, and hsa-mir-21 or hsa-mir-16) and a reverse transcriptase (manufactured by Thermo Fisher Scientific Inc., Taqman microRNA RT kit).
The reverse transcription PCR solution obtained by the above described method was processed and by comparing the number of cycles on a calibration curve of microRNA using Taqman Assay primer (manufactured by Thermo Fisher Scientific Inc., Taqman microRNA Assays, Taqman Assay primer, and hsa-mir-21 or hsa-mir-16) and Real-Time PCR Master Mixes (manufactured by Thermo Fisher Scientific Inc., TaqMan Universal PCR Master Mix II, w/UNG) with StepOnePlus Real-Time PCR System, MiR-21 or miR-16 was quantified. The calibration curve of microRNA was created using synthetic miR-21 (manufactured by Sigma-Aldrich Co. LLC.) or synthetic miR-16 (manufactured by Sigma-Aldrich Co. LLC.).
10 μL of the exosome fraction was prepared such that PBS contains 1×10^11 particles/mL of the exosome fraction B derived from human breast cancer cells, various antimicrobial peptides shown in the following Table 2 adjusted to 100 μM, and 0.4 U/μL of RNase inhibitor (manufactured by Toyobo Co., Ltd.), followed by incubation by being left to stand at 37° C. for 24 hours.
MicroRNA eluted into the solution was purified and recovered from the incubated solution of Example 10 above and Comparative Example 6 above by the following method.
First, 160 μL of PBS was added to the reaction solution, and then the solution was added to a centrifugal filter (manufactured by Millipore Corporation, Amicon Ultra 0.5 mL, 100K filter) and centrifuged at 14,000 G for 2 minutes. Subsequently, 100 μL of the centrifuged filtrate was recovered and introduced into a 1.5 mL tube. Next, 350 μL of RLT buffer (manufactured by QIAGEN, attached with RNeasy mini kit) and 675 μL of ethanol were added and mixed in the 1.5 mL tube. The obtained mixture was separated into two parts, and each of the separates was added onto a spin column (manufactured by QIAGEN, attached with RNeasy mini kit) followed by centrifugation at 8,000 G for 15 seconds, and the entire amount of the mixture was passed through the spin column. Thereafter, 500 μL of RPE buffer (manufactured by QIAGEN, attached with RNeasy mini kit) was added thereto and centrifuged at 8,000 G for 15 seconds. Furthermore, 500 μL of the RPE buffer was added to the spin column once more and centrifuged at 8,000 G for 15 seconds. Thereafter, the spin column was centrifuged at 14,000 G for 1 minute to remove the residual RPE buffer. Next, 30 μL of RNase free water (manufactured by QIAGEN, attached with RNeasy mini kit) was added to the spin column, left for 1 minute, and then centrifuged at 14,000 G for 1 minute, and the eluate obtained thereby was recovered. […]

| Molecule | Destructive activity (concentration of microRNA miR-21 in eluate) |
| --- | --- |
| 9R: amino acid sequence RRRRRNWMWC | B (the concentration of microRNA is 10×10^−14M to 50×10^−14M) |
| CCCCCCCCCCCCCCCC[N+](C)(C)C.[Br-] [1% CTAB, CTAB, reference compound] | D (the concentration of microRNA is less than 10×10^−14M) |
| N=C(N)N [4M guanidine, guanidine, reference compound] | D (the concentration of microRNA is less than 10×10^−14M) |
| CCCCCCCCCCCCCCCCCCOP(=O)([O-])OCC[P+](C)(C)C [Octadecylphosphophosphoniumcholine, reference compound] | D (the concentration of microRNA is less than 10×10^−14M) |
| (Gln^53)-Connexin 37 (51-58) [(Gln^53)-Connexin 37(51-58)] | D (the concentration of microRNA is less than 10×10^−14M) |
| (HHPHG)3 | B (the concentration of microRNA is 10×10^−14M to 50×10^−14M) |
| (HHPHG) 2 (HHPHGHHPHG) [(HHPHG)2] | B (the concentration of microRNA is 10×10^−14M to 50×10^−14M) |
| (HHPHG) 4 [(HHPHG)4] | B (the concentration of microRNA is 10×10^−14M to 50×10^−14M) |
| Alloferon 1 (HGVSGHGQHGVHG) | D (the concentration of microRNA is less than 10×10^−14M) |
| Ascaphin-8 | B (the concentration of microRNA is 10×10^−14M to 50×10^−14M) |
| Benzalkonium-Cl [1% Benzalkonium-Cl, reference compound] | D (the concentration of microRNA is less than 10×10^−14M) |
| Buforin IIb | B (the concentration of microRNA is 10×10^−14M to 50×10^−14M) |
| C-Reactive Protein (CRP) (174-185) (IYLGGPFSPNVL; UniProt P02741 192-203, looked up, fragment) | D (the concentration of microRNA is less than 10×10^−14M) |
| Cecropin B (KWKVFKKIEKMGRNIRNGIVKAGPAIAVLGEAKAL-NH2) | B (the concentration of microRNA is 10×10^−14M to 50×10^−14M) |
| Defensin HNP-1 | B (the concentration of microRNA is 10×10^−14M to 50×10^−14M) |
| Dermaseptin | B (the concentration of microRNA is 10×10^−14M to 50×10^−14M) |
| Dermcidin-1L (SSLLEKGLDGAKKAVGGLGKLGKDAVEDLESVGKGAVHDVKDVLDSVL) | D (the concentration of microRNA is less than 10×10^−14M) |
| Epinecidin-1 (GFIFHIIKGLFHAGKMIHGLV-NH2) | B (the concentration of microRNA is 10×10^−14M to 50×10^−14M) |
| Gageostatin C | D (the concentration of microRNA is less than 10×10^−14M) |
| Hepcidin-20 (ICIFCCGCCHRSKCGMCCKT; ends and bridges not checked; cysteine pairing not given here; UniProt P81172 65-84, looked up) | D (the concentration of microRNA is less than 10×10^−14M) |
| Histatin-5 | B (the concentration of microRNA is 10×10^−14M to 50×10^−14M) |
| Macropin 1 | B (the concentration of microRNA is 10×10^−14M to 50×10^−14M) |
| Maculatin 3.1 | B (the concentration of microRNA is 10×10^−14M to 50×10^−14M) |
| Magainin I (GIGKFLHSAGKFGKAFVGEIMKS) [Megainin I] | B (the concentration of microRNA is 10×10^−14M to 50×10^−14M) |
| NK-2 | B (the concentration of microRNA is 10×10^−14M to 50×10^−14M) |
| NRC-03 | B (the concentration of microRNA is 10×10^−14M to 50×10^−14M) |
